Laboratory results published in patent US4759929A, “Novel treatment” (Cabinet Harle & Phelip, priority 1987, dated 1988).

Key:
[1] = molecular target: T1, LAV purified reverse transcriptase (Human immunodeficiency virus type 1 group M subtype B, UniProt P03367); assay: Lineweaver-Burk kinetics, varying poly A oligo dT12-18 template primer concentration; type: biochemical, Lymphadenopathy associated virus (LAV); conditions: for HPA23 inhibition: LAV purified RT, FIG. 1 legend
T1 construct: made in house
Experimental: The results of the Lineweaver-Burk plots of the effects of varying concentration of poly An oligo dT12-18 at two different HPA23 concentrations are summarized in FIG. 1. In the experimental conditions, kinetic enzymatic parameters are: KM=2.18 nM of polyA oligo dT, Vmax=0.02 pM of 3 HTMP incorporated sec^-1. […] The interaction of HPA23 with the template primer-enzyme complex should take place at the binding site of the template primer.
Lineweaver-Burk representation of the influence of poly A oligo T12-18 template concentration on the inhibition by HPA23 of LAV purified reverse transcriptase
A: picomoles of ^3 H TMP incorporated in five minutes at 37° C.
B: template primer concentration (OD ml^-1)
: control (no inhibition)
: inhibition dose corresponds to 65 percent HPA23 inhibition (19 μg/ml)
inhibition dose corresponds to 80 percent HPA23 inhibition (40 μg/ml)
Each plot-point is the mean of three experiments.

[2] = system: mammalian cellular DNA polymerases; conditions: known; cited from earlier work
[3] = system: lymphatic choriomeningitis virus; conditions: adult mice acutely infected; cited from earlier work
pancreatic RNase = pancreatic RNase (Bos taurus, UniProt P61823); assay: Inhibition of pancreatic RNase (unpublished results); type: biochemical
pancreatic RNase, sequence (P61823 27-150): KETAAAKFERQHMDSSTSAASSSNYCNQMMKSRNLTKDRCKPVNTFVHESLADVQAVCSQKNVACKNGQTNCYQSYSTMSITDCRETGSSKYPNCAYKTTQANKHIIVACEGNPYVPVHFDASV

E. Coli RNase H = E. Coli RNase H (Escherichia coli, UniProt P0A7Y4); assay: Inhibition of E. Coli RNase H (unpublished results); type: biochemical
E. Coli RNase H, sequence (P0A7Y4 whole entry): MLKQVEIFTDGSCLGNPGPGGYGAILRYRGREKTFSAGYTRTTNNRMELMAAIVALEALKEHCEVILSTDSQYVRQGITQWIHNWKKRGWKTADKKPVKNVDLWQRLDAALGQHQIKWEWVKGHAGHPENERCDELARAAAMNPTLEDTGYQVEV

pancreatic DNase = pancreatic DNase (Bos taurus, UniProt P00639); assay: Inhibition of pancreatic DNase (unpublished results); type: biochemical
pancreatic DNase, sequence (P00639 23-282): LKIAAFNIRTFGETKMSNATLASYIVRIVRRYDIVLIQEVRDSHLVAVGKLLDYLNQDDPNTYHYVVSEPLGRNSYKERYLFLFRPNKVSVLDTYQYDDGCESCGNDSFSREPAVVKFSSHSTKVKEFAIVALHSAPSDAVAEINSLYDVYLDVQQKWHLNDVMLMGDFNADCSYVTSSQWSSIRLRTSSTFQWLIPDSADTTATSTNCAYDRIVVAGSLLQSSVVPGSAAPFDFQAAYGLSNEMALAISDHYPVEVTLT

β DNA polymerase = β DNA polymerase (Mus musculus, UniProt Q8K409); conditions: cited from earlier work
T4 + Lymphocytes = assay: T4+ lymphocytes number in treated patients; type: in vivo, human; conditions: four patients; after therapy
LAV = assay: Isolation of LAV from peripheral blood T cell cultures and cocultures of treated patients (RT activity in supernatant)
AIDS or related syndrome = assay: Clinical features after HPA23 treatment; type: in vivo, human
[4] = system: natural killer (NK) and killer cells (ADCC) function; conditions: cited from earlier work
E. Coli DNA polymerases = conditions: known; cited from earlier work
[5] = molecular target: SAIDS virus reverse transcriptase (Simian retrovirus SRV-1, UniProt P04025); assay: Reverse transcriptase assay, SAIDS virus; type: biochemical, Simian AIDS (SAIDS) virus; conditions: for Percent inhibition / p. mole incorporated: SAIDS virus; for p. mole incorporated: control 0.43
SAIDS virus reverse transcriptase, sequence (P04025 913-1497): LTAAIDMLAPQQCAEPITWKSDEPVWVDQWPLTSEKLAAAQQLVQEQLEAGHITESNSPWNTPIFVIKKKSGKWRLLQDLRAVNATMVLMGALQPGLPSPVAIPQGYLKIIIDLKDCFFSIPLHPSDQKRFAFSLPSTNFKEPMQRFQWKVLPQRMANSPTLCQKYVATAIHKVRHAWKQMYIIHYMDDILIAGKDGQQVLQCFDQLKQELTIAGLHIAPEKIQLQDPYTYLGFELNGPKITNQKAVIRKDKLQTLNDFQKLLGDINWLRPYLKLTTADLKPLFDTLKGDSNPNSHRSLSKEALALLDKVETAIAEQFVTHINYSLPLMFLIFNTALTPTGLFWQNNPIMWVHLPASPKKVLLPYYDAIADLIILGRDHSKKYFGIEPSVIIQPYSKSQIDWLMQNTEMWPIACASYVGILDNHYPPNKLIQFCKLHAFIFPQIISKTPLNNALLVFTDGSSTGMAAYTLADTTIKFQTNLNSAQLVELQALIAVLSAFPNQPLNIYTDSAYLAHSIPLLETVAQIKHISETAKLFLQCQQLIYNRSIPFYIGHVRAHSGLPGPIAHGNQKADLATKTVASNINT
Experimental: Simian AIDS (SAIDS) virus producing cells were provided by Murray Gardner, M.D. and supernatants of cell cultures were concentrated using polyethylene glycol (PEG) 10 percent precipitation. The precipitate was purified on a 20 to 60 percent sucrose gradient (50,000 g, 2.5 hours). Reverse transcriptase assays (see legend Table I) were performed on each fraction from the collected gradient. Maximum RT activity was found at a density of 1.18.
(§1) Assay mixtures are indicated in the legend of Table I. The reaction was stopped by treating the mixtures with sodium pyrophosphate and trichloracetic acid. The results are given as picomoles of tritiated deoxyribonucleotides monophosphate incorporated into DNA after 1 hour at 37° C.
(§2) HPA 23 inhibition of reverse transcriptase of SAIDS virus and LAV.
(§3) Reaction mixture (50 μl) contains: Tris 50 mM pH 7.9, 5 mM MgCl2,
(§4) OD/ml Oligo dT 12-18, and 200 pM ^3 HTTP (25 Ci/mM).

encephalomyocarditis = conditions: mice; cited from earlier work
[6] = Pharmacokinetic studies in patient, I.V bolus infusion; type: in vivo, human; conditions: patient 1; I.V bolus infusion (about two minutes)
E. Coli RNA polymerases = E. Coli RNA polymerases (Escherichia coli, UniProt P0A8T7+P0A8V2); conditions: known; cited from earlier work
[7] = system: Friend viruses and the plasma variant of Chirigos virus; conditions: in vivo; cited from earlier work
mouse α DNA polymerase = mouse α DNA polymerase (Mus musculus, UniProt P33609); conditions: required doses much higher than those inhibiting reverse transcriptase; cited from earlier work
mouse α DNA polymerase, sequence (P33609 whole entry): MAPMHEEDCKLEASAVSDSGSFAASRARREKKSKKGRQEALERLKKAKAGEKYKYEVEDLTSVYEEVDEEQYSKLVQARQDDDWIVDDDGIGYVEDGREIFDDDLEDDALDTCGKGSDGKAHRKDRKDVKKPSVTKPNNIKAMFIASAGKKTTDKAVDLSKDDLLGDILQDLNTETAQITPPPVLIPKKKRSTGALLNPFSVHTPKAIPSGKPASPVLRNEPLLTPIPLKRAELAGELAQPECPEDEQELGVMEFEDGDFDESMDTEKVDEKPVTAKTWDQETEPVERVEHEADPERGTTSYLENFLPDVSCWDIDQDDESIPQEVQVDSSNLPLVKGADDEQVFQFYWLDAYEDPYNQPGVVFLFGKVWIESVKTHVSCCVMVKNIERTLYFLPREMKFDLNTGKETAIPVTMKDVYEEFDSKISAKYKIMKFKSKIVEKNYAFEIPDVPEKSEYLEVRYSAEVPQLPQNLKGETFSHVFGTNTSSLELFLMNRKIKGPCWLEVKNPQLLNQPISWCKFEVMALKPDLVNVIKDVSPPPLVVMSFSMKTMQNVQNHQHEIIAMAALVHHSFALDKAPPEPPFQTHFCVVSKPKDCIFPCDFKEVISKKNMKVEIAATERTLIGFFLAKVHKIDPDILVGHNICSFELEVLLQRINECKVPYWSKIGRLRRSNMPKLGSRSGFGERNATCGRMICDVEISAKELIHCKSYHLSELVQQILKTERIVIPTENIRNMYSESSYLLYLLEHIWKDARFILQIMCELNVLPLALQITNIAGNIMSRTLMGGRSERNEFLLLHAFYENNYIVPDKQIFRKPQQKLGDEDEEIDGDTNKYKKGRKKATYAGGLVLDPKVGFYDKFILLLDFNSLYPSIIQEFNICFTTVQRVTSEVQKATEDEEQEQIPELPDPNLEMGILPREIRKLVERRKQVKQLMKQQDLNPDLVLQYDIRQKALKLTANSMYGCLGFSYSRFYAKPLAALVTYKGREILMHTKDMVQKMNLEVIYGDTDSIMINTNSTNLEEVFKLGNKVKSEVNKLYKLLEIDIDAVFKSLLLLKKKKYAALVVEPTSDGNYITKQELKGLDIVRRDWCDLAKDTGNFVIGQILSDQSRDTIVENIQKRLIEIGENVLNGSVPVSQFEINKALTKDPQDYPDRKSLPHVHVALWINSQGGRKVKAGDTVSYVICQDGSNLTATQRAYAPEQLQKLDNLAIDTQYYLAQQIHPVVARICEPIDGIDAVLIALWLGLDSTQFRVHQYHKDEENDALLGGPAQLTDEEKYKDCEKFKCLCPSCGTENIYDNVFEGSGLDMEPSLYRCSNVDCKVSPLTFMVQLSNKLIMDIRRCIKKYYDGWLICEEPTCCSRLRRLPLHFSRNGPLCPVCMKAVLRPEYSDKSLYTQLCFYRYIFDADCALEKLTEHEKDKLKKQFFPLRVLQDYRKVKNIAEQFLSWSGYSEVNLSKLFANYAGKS

[8] = molecular target: T2, LAV reverse transcriptase (Human immunodeficiency virus type 1 group M subtype B, UniProt P03367); assay: Reverse transcriptase assay, LAV virus (non purified RT); type: biochemical, Lymphadenopathy associated virus (LAV); conditions: for ID50: LAV virus (non purified RT), 1 hour at 37° C.; for Percent inhibition / p. mole incorporated: LAV virus; for p. mole incorporated: control 0.13
T2 construct: made in house; host or cells: LAV virions, PEG concentrated and sucrose gradient purified
Experimental: Lymphadenopathy associated virus (LAV) was purified. Briefly, after clarification, the virus was concentrated by PEG (10 percent), and then centrifuged for 1.5 hours at 55,000 g (IEC type SB 498 rotor) on a 10 to 60 percent sucrose gradient. Reverse transcriptase assays were performed on each fraction and the maximum RT activity was found at a density of 1.16 and corresponded to the purified virus fraction.
as §1, §2, §3, §4

Ammonium-9-antimonio-III-21-tungsto-VII-sodate [HPA 23]
inhibition mechanism ([1]; LAV RT, versus template primer poly A oligo dT12-18): competitive inhibition | HPA23 inhibition ([1]; 19 μg/ml): 65% | HPA23 inhibition ([1]; 40 μg/ml): 80% | inhibition of mammalian cellular DNA polymerases [2]: strong inhibitor | mortality [3]: reduces the mortality | inhibition of pancreatic RNase (pancreatic RNase): does not inhibit | inhibition of E. Coli RNase H (E. Coli RNase H): does not inhibit | inhibition of pancreatic DNase (pancreatic DNase): does not inhibit | effect on β DNA polymerase (β DNA polymerase): without any effect | absolute numbers of T4 + cells and T4 /T8 ratio (T4 + Lymphocytes): did not change significantly | LAV detection in T cell cultures (LAV; patient 1, during each period of treatment, I.V bolus, 1 mg/kg to 3.3 mg/kg): LAV could no longer be detected | LAV isolation, even after cocultivation (LAV; patients 1 and 2, one month after the end of the treatment): LAV was not isolated | LAV detection in T cell cocultures (LAV; patients 2, 3 and 4, 30 days after the end of the treatment): LAV was again detected in the T cell cocultures in two of the three patients (3 and 4) at a very low level | LAV isolation from primary cultures and cocultures of patient T cells (LAV; patients 2, 3 and 4, following two weeks treatment, 200 mg IV infusion per day during 15 days): no virus (LAV) was isolated | Kaposi's sarcoma evolution (AIDS or related syndrome; patient 3, 4 months outcome): stabilized their mucosal evolutive K.S., without regression | opportunistic infections (AIDS or related syndrome; patient one, one year after the end of HPA23 therapy): did not present anymore other opportunistic infections | effect on NK and ADCC function [4]: stimulating agent | inhibition of E. Coli DNA polymerases (E. Coli DNA polymerases): strong inhibitor | inhibition mechanism ([5]; SAIDS (monkey) virus enzyme, kinetic studies): competitive inhibition | ID50 ([5]; SAIDS virus RT, 1 hour at 37° C.): 1.1 µg/mL | Percent inhibition ([5]; inhibitor 0.5 μg/ml): 21% | p. mole incorporated ([5]; inhibitor 0.5 μg/ml): 0.34 p. mole | Percent inhibition ([5]; inhibitor 1 μg/ml): 35% | p. mole incorporated ([5]; inhibitor 1 μg/ml): 0.28 p. mole | Percent inhibition ([5]; inhibitor 2.5 μg/ml): 80% | p. mole incorporated ([5]; inhibitor 2.5 μg/ml): 0.09 p. mole | Percent inhibition ([5]; inhibitor 5 μg/ml): 94.5% | p. mole incorporated ([5]; inhibitor 5 μg/ml): 0.024 p. mole | Percent inhibition ([5]; inhibitor 10 μg/ml): 99.5% | p. mole incorporated ([5]; inhibitor 10 μg/ml): 0.0025 p. mole | Percent inhibition ([5]; inhibitor 25 μg/ml): 100% | p. mole incorporated ([5]; inhibitor 25 μg/ml): 0 p. mole | activity against lethal encephalomyocarditis infections (encephalomyocarditis): some activity | half life [6]: < 20 min | inhibition of E. Coli RNA polymerases (E. Coli RNA polymerases): strong inhibitor | recovery of the platelet count to the pretreatment value (each adult patient): between 21st day and the 45th day after | platelet toxicity (four patients): some platelet toxicity in three out of four cases | renal toxicity (four patients): No new renal toxicity was observed | recovery of hepatic transaminases to the pretreatment range (patients 2, 3 and 4): ≤ 21 days | elevations of the hepatic transaminases (patients 2, 3 and 4 during treatment): 2 ×normal value | protection against leukemia [7]: protects | inhibition of mouse α DNA polymerase (mouse α DNA polymerase): inhibitor | ID50 ([8]; 60 min): 30.5 µg/mL | ID50 ([8]; listed as HPA23, 60 min): 30 µg/mL | Percent inhibition ([8]; inhibitor 10 μg/ml): 2.4% | p. mole incorporated ([8]; inhibitor 10 μg/ml): 0.127 p. mole | Percent inhibition ([8]; inhibitor 25 μg/ml): 18.6% | p. mole incorporated ([8]; inhibitor 25 μg/ml): 0.013 p. mole | Percent inhibition ([8]; inhibitor 50 μg/ml): 84.4% | p. mole incorporated ([8]; inhibitor 50 μg/ml): 0.098 p. mole | Percent inhibition ([8]; inhibitor 60 μg/ml): 100% | p. mole incorporated ([8]; inhibitor 60 μg/ml): 0 p. mole
